# In the NIST ThermoML archive (doi:10.1016/j.jct.2016.04.023):
# Numbers after ± are expanded uncertainties.
# Assay: Boiling temperature at pressure P
# Settings: Liquid, DSC
Boiling temperature at pressure P (3.47 kPa),Compound,also measured
201.40 ± 1.9 °C,"CCCC(=O)OCC(COC(=O)CCC)OC(=O)CCC [1,2,3-propanetriyl tributanoate]",–
225.89 ± 1.8 °C,CCCCCCCCCCCCCCCCCCO [1-octadecanol],–
211.90 ± 1.9 °C,"CCCCCCCC(=O)OCC(O)CO (stereo unspecified) [2,3-dihydroxypropyl octanoate]",–
186.13 ± 1.7 °C,OCC(O)CO [glycerol],–
196.81 ± 1.9 °C,CCCCCCCCCCCCCCCCCC [octadecane],–
144.04 ± 1.9 °C,CCCCCCCC(=O)O [octanoic acid],–

Compound,Boiling temperature at pressure P (3.47 kPa),also measured
CCCCCCCCCCCCCCCC [hexadecane],170.91 ± 2.5 °C,Boiling temperature at pressure P (10.37 kPa): 200.90 ± 1.7 °C; Boiling temperature at pressure P (15.17 kPa): 213.66 ± 1.6 °C; Boiling temperature at pressure P (18.66 kPa): 220.5 ± 2.6 °C; Boiling temperature at pressure P (22.39 kPa): 223.27 ± 2.3 °C
